The values that follow come from US4861771A, “Carbamates of 6-chloro-7,8-dihydroxy-1-(4'-hydroxyphenyl)-2,3,4,5-tetrahydro-1H-3-benz azepine as prodrugs” (priority 1989, dated 1989).

Series [1] is described as follows: plasma fenoldopam levels in dogs. It counts as in vivo, female mongrel dogs. The source says:
(§1) The renal blood flow of the compounds of Formula 1 was readily measured in female mongrel dogs which underwent chronic implantation of a renal flow probe and arterial Vascular-Acess-Port. Briefly, the dogs were anesthetizied and using standard asceptic techniques, a Transonic flow probe was placed around the left renal artery and the connector tunneled subcutaneously to the back of the dog. The Vascular-Access-Port was placed in the left femoral artery and the access portion tacked to the underlying muscle in the area of the paralumbar-fossa. The patency of the Vascular Access Port was maintained by weekly flushing of the catheter and locking with a 50% glucose 500 U/ml heparinized solution. Dogs were trained to lie quietly restrained on a board and the connector portion of the flow probe was exteriorized under local anesthesia and connected to a Transonic flowmeter. Renal blood flow was recorded continuously on a Gilson chart recorder. Mean arterial pressure was monitored directly from the Vascular-Access-Port using a 23 gauge butterfly. Mean arterial blood pressure and renal blood flow were recorded before and for 6 hr. after the oral or i.v. administration of the R-enantiomers of the parent compound (fenoldopam) and the prodrug of fenoldopam. At the end of the experiment, the flow probe connector was returned to its subcutaneous position and the skin incision closed with chromic gut and skin staples. The VAP was again flushed and a fresh heparin glucose lock established. Standard sterile procedures followed during the removal and replacement of the flow probe connector.
During the experiment post drug blood samples were withdrawn periodically in order to determine the plasma levels of the parent drug, i.e., fenoldopam plasma levels.

The subject of another series is renal blood flow. As to the kind of experiment: renal blood flow in chronically instrumented (flow probe) dogs. It counts as in vivo, female mongrel dogs. Conditions: oral.
Excerpt: as §1
The effect was transient and renal blood flow had returned to control values within 60 minutes.

For series [2] the following is noted: cited from earlier work.

Where a name gives a salt, the structure may show the parent alone. Some results are limits rather than exact numbers.

`CCNC(=O)Oc1ccc([C@H]2CNCCc3c2cc(OC(=O)NCC)c(OC(=O)NCC)c3Cl)cc1` [Example 3, (R)-6-chloro-7,8-diethylcarbamoyl-(4'-ethylcarbamoylphenyl)-2,3,4,5-tetrahydro-1H-3-benzazepine hydrochloride]: in series [1] (oral, dogs), the “duration of sustained increase in plasma fenoldopam” value lay within 4 to 6 h. Further, in the series with renal blood flow (dogs), the “duration of sustained increase in renal blood flow” value was 4 to 6 h.

As for `Oc1ccc([C@H]2CNCCc3c2cc(O)c(O)c3Cl)cc1` [R-6-chloro-7,8-dihydroxy-1-(4'-hydroxyphenyl)-2,3,4,5-tetrahydro-1H-3-benzazepine], the Tmax in series [1] (dog, plasma, oral, 4 dogs, read-out: time of peak plasma fenoldopam level (converted)) was 5 min. Moreover, in the series on renal blood flow (4 dogs), the “renal blood flow effect in words” value is given as “transient” and the “time for renal blood flow to return to control values” was ≤ 60 min. For the same compound, the “increase in renal blood flow” value with renal blood flow (4 dogs, significant increase) came out at 80%.

Usually half-life stands for the time needed for the level to fall by half in the phase considered. Read a high half-life as slow decline. In series [1] (dog, plasma, after oral administration of fenoldopam, dogs), `Oc1ccc(C2CNCCc3c2cc(O)c(O)c3Cl)cc1` (centres unmarked) [fenoldopam, 6-chloro-7,8-dihydroxy-1-(4-hydroxyphenyl) 2,3,4,5-tetrahdyro-1H-3-benzazepine] had a half-life of 12 min. The “initial peak plasma level” value in series [2] (in vivo, po) is reported as “initial high peak plasma level”. Further, in series [2] (oral), the bioavailability entry is “low” and the first pass metabolism result is reported as “high”. Also, the half life result in series [2] (reportedly) is given as “short”.
